Data: ChEMBL document CHEMBL1275380, “Studies toward the structural optimization of novel thiazolylhydrazone-based potent antitrypanosomal agents” (Bioorg Med Chem, 2010)
Calls of active or inactive are those of the source. The rule behind the calls is not given here.

Columns and labels:
[1] = target: Cruzipain (Trypanosoma cruzi) (UniProt P25779); assay: Inhibition of Trypanosoma cruzi cruzaine in presence of 0.01% Triton X-100
[2] = target: Cruzipain (Trypanosoma cruzi) (UniProt P25779); assay: Inhibition of Trypanosoma cruzi cruzaine at 100 uM pre-incubated for 10 mins
[3] = target: Cruzipain (Trypanosoma cruzi) (UniProt P25779); assay: Inhibition of Trypanosoma cruzi cruzaine in absence of 0.01% Triton X-100
Trypanosoma cruzi [4] = assay: Antitrypanosomal activity against epimastigotes of Trypanosoma cruzi Y assessed as viability after 11 days by trypan blue exclusion assay; type: functional, organism-based; settings: 264 h
Trypanosoma cruzi [5] = assay: Antitrypanosomal activity against trypomastigotes of Trypanosoma cruzi Y assessed as viability after 24 hrs by trypan blue exclusion assay; type: functional, organism-based
[6] = Cytotoxicity against BALB/c mouse Splenocyte assessed as non-cytotoxic concentration after 24 hrs by [3H]-thymidine incorporation assay relative to control; type: cell-based; settings: splenocytes, read-out: Activity
Mus musculus = assay: Toxicity in Swiss mouse assessed as mortality at 100 mg/kg, ip after 72 hrs; type: organism-based; parameters: dose 100 mg/kg, route intraperitoneal; settings: in vivo
Cruzipain = Cruzipain (Trypanosoma cruzi, UniProt P25779); assay: Inhibition of Trypanosoma cruzi cruzaine pre-incubated for 10 mins
Trypanosoma cruzi [7] = assay: Antitrypanosomal activity against epimastigotes of Trypanosoma cruzi Y assessed as viability at 40 uM after 7 days by trypan blue exclusion assay; type: functional; settings: 168 h
Trypanosoma cruzi [8] = assay: Antitrypanosomal activity against epimastigotes of Trypanosoma cruzi Y assessed as viability at 40 uM after 11 days by trypan blue exclusion assay; type: functional; settings: 264 h
Trypanosoma cruzi [9] = assay: Antitrypanosomal activity against epimastigotes of Trypanosoma cruzi Y assessed as viability at 40 uM after 15 hrs by trypan blue exclusion assay; type: functional
[10] = target: Cruzipain (Trypanosoma cruzi) (UniProt P25779); assay: Inhibition of Trypanosoma cruzi cruzaine without pre-incubation; settings: TDE = time-dependent effect

Chain of Cruzipain (Trypanosoma cruzi) (P25779 123-467 limits assumed): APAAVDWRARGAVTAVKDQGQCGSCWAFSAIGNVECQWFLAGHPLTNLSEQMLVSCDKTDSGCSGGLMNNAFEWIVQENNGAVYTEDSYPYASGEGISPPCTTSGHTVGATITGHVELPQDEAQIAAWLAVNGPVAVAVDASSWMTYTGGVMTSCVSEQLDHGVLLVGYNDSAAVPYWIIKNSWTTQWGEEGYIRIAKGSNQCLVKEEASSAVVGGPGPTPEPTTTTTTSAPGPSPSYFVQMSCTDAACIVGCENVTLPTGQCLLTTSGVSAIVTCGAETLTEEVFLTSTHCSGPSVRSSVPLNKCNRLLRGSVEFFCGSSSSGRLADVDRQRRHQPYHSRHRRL
Chain of Cruzipain (P25779 whole entry): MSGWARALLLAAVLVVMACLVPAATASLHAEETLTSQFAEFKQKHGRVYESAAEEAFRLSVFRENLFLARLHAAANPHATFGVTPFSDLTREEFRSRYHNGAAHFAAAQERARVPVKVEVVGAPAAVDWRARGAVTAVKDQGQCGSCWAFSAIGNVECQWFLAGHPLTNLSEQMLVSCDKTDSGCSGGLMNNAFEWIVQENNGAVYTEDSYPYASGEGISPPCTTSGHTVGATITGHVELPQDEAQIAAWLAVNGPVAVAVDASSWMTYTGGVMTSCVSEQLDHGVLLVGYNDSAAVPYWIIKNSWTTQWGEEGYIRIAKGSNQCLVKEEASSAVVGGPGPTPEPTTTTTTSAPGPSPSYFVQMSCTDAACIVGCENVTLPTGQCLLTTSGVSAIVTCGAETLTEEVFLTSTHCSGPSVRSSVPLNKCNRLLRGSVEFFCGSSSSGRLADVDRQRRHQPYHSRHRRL

inhibition [1] | inhibition [2] [%] | inhibition [3] | IC50 (Trypanosoma cruzi [4]) [µM] | IC50 (Trypanosoma cruzi [5]) [µM] | inhibition [10] | SMILES | MNTC at 24 h [6] [µg/mL] | Activity (Mus musculus) | IC50 (Cruzipain) [µM] | inhibition at 40 µM (Trypanosoma cruzi [7]) [%] | inhibition at 40 µM (Trypanosoma cruzi [8]) [%] | inhibition at 40 µM (Trypanosoma cruzi [9]) [%]
Active | 5 | Active | 167 | 44.2 |  | CC1S/C(=N/N=C/CSc2ccccc2)NC1=O (configuration not stated) | > 100 |  |  |  | 4 | 
Active | 98 | Active | 32.1 |  |  | CC1S/C(=N/N=C/CCSc2ccc(Cl)cc2)NC1=O (configuration not stated) | > 100 |  | 0.2 |  | 10 | 
Active | 11 | Active | 40.8 | 54.6 |  | CCC1S/C(=N/N=C(\C)CSc2ccc(S)cc2)NC1=O (configuration not stated) | > 100 |  |  |  | 41 | 
Active | 35 | Active | 7.3 | 7.4 |  | NC(=S)N/N=C/C=C/c1ccccc1 | < 1 |  |  |  | 99 | 
Active | 11 | Active | 43.9 | 82.4 |  | O=C1CS/C(=N/N=C/CSc2ccc(Cl)cc2)N1 | > 100 |  |  |  | 8 | 
Active | 22 | Active | 45.1 | 76.9 |  | CCC1S/C(=N/N=C(\C)CSc2ccc(C)cc2)NC1=O (configuration not stated) | > 100 |  |  |  | 40 | 
Active | 31 | Active | 62.9 | 148 |  | CCC1S/C(=N/N=C(\C)CSc2ccc(Cl)cc2)NC1=O (configuration not stated) | > 100 |  |  |  | 24 | 
Active | 8 | Active | 42.9 |  |  | O=C1CS/C(=N/N=C/CSc2ccc(Br)cc2)N1 | > 100 |  |  |  | 31.5 | 
 | 96 |  | 8.5 | 39.5 | tde | C/C(=N\N=C(\N)S)c1ccc(Cl)c(Cl)c1 | 1 |  | 0.1 |  |  | 
Active | 8 | Active | 2.3 | 10.1 |  | O=C1CS/C(=N/N=C/C=C/c2ccccc2)N1 | < 1 |  |  |  |  | 

The next lines start with the compound.

SMILES | inhibition [1] | inhibition [2] [%] | inhibition [3] | IC50 (Trypanosoma cruzi [4]) [µM] | IC50 (Trypanosoma cruzi [5]) [µM] | inhibition [10] | MNTC at 24 h [6] [µg/mL] | Activity (Mus musculus) | IC50 (Cruzipain) [µM] | inhibition at 40 µM (Trypanosoma cruzi [7]) [%] | inhibition at 40 µM (Trypanosoma cruzi [8]) [%] | inhibition at 40 µM (Trypanosoma cruzi [9]) [%]
Cc1ccc(SC/C=N/N=C2\NC(=S)C(C)S2)cc1 (configuration not stated) | Active | 6 | Active | 6.1 | 4.5 |  | < 1 | Toxic |  |  |  | 
CC1S/C(=N/N=C/CCSc2ccccc2)NC1=S (configuration not stated) | Active | 92 | Active | 8.1 | 2.3 |  | 1 | Toxic | 0.06 | 94 |  | 
O=C(Cn1ccnc1[N+](=O)[O-])NCc1ccccc1 [BENZNIDAZOLE] |  |  |  |  |  |  | 25 | Non-toxic |  | 85 | 97 | 43
CCC1S/C(=N/N=C/CSc2ccc(Br)cc2)NC1=O (configuration not stated) | Active | 38 | Active | 26.9 |  |  | > 100 | Non-toxic |  | 61 | 77 | 0
NC(=S)N/N=C/CCc1ccccc1 | Active |  | Active | 3.7 | 3.7 |  | < 1 |  |  |  |  | 
CC1S/C(=N/N=C/CCSc2ccccc2)NC1=O (configuration not stated) | Active | 93 | Active | 2.9 | 10 |  | > 100 | Non-toxic | 0.4 | 100 | 100 | 75
NC(=S)N/N=C/CSc1ccccc1 | Active | 28 | Active | 13.4 | 158 |  | 5 | Non-toxic |  |  | 100 | 
Cc1ccc(SC/C=N/N=C2\NC(=O)C(C)S2)cc1 (configuration not stated) | Active | 80 | Active | 6.7 | 84.8 |  | > 100 | Non-toxic | 20.4 | 97 | 97 | 85
CC/C(=N\NC(N)=S)c1cccc(Br)c1 |  |  |  |  |  |  | 1 |  |  |  |  | 
CC/C(=N\N=C(\N)S)c1cccc(Br)c1 |  | 92 |  | 15.4 | 11.1 | tde |  |  |  |  |  | 
